Experimental data taken from patent US20260098019A1, “SYNTHESIS OF NSAID CONJUGATES AS ANTI-INFLAMMATORY AGENTS USING THE MOLECULAR HYBRIDIZATION” (AUGUSTA UNIVERSITY RESEARCH INSTITUTE, INC., priority 2022, published 2026).
Where two headings read alike, the source gives them in different places. Marks after values point to notes of the source that are not given here.

What was measured:
[1] = system: acetic acid-induced writhing; test: acetic acid-induced writhing test (peripheral analgesic); type: in vivo, albino mice; details: for Potency: % inhibition/protection compared to indomethacin
Protocol: Peripheral analgesic activity was measured by the standard acetic acid-induced writhing test in mice. […] One hour after the i.p. administration, each mouse was injected with 0.1 ml of 1% acetic acid solution i.p. The control group animals were given sterile/distilled water with few drops of Tween 80. Starting 5 min after the acetic acid injection, the number of muscular contractions in each mouse was counted for 30 min. A significant reduction in the number of writhing by a conjugate compared with control animals was considered as a positive analgesic response. Percentage protection was calculated according to equ. (3), where n is the average number of writhing in the control group and n′ is the average number of writhing in the treated group. The % potency was calculated by equ. (4) (Table 2).

hot plate latency = test: hot plate test (central analgesic); type: in vivo, albino mice; details: for Latency period ± SE: 10 mg/kg indomethacin mol equivalent i.p., cutoff 15 seconds; for % Protection: vs control; for Potency: at 120 min. compared to indomethacin
Protocol: An in vivo standard hot plate test was performed. […] The control group animals were given sterile/distilled water with few drops of Tween 80. The maximum cutoff time was 15 seconds to prevent tissue damage. Response latencies were measured at 30, 60, 90 and 120 inns. The % protection was calculated by equ. (5), where, Ti, To are the latency time mean of the tested compound and control group respectively (Table 3).

toxicological bioassay = details: 50 mg/kg indomethacin mol equivalent (5 folds of anti-inflammatory dose); 24 h post-administration
Protocol: Albino mice weighing 20-25 g were divided into 6 groups of 6 mice each. […] The toxic symptoms and mortality rates were recorded 24 h post-administration in each group.
Five times of the anti-inflammatory dose was orally administrated.

COX-1 = COX-1 (UniProt P05979); type: biochemical, human; details: ± SD
Source text: (§1) Rev. […] Thromb. Vasc. […] Rev. […] Rev. […] Rev. Oncol. Hematol. […] Curr. Pharm. Des. […] Luong, et al., Nat. Struct. […] A. and Marnett, L. J., Chem. Rev. […] Drug Discov. […] Biomol.

COX-2 = biological target: T1, COX-2 (Homo sapiens, UniProt P35354); test: Inhibition of COX-2; type: biochemical; details: for SI: SI=IC50 (COX-1)/IC50 (COX-2); for IC50: ± SD
T1 construct: purchased BioVision Incorporated K547-100 and K548-100 (for COX-1/2)
T1 sequence (P35354 18-604): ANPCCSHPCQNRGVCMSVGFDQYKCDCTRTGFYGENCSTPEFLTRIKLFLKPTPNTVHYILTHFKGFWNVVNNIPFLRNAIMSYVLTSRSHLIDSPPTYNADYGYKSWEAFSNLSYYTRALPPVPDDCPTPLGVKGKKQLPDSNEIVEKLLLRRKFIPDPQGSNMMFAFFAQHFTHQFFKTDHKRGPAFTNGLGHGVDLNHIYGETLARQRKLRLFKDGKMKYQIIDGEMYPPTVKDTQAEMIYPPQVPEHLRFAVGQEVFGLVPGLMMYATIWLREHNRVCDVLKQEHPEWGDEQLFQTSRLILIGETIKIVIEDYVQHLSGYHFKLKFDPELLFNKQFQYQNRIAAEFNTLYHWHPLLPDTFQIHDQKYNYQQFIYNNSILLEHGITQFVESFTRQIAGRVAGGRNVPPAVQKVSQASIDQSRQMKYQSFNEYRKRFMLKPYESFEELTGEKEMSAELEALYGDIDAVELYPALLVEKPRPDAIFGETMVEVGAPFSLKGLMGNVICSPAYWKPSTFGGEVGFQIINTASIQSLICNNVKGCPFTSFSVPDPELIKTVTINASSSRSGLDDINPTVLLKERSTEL
Source text: as §1

gastric mucosa [2] = details: mouse, in vivo
Protocol: (§2) The ulcerogenic liability of conjugates was determined in albino mice following a standard method. Animals of either sex (pregnant females were excluded) weighing 20-25 g were divided into 8 groups of 6 animals each. The animals fasted 18 h before drug administration. […] The control group animals were given water with a few drops of Tween 80. The animals were sacrificed by cervical dislocation and the stomach was removed, opened along the greater curvature, and rinsed with saline. The gastric mucosa was examined with a magnifying lens (10×) for the presence of lesions and erosions. The ulcer index was calculated (Table 4) and the degree of ulcerogenic effect was expressed in terms of: (1) the percentage incidence of ulcers divided by 10; (2) average number of ulcers per stomach; and (3) average severity of ulcers. The ulcer index is the value that resulted from the sum of the above three values.

[3] = system: LPS-stimulated RAW264.7 macrophages; test: NO production (nitrite, Griess method) in LPS-stimulated RAW264.7; type: cell-based; details: LPS 10 ng/mL
Protocol: The Griess method was used to determine the nitrite concentration in cell culture medium. […] The next day, a volume of 150 μL of the cell supernatant was transferred to a new 96-well plate and 130 μL of deionized water was added on top of it. Lastly, a volume of 20 μL of Griess reagent was added to the cell supernatant and incubated for 30 min in the dark at room temperature. Griess reagent was prepared according to instructions: 1:1 ratio of N-1-naphthyl-ethylenediamine (0.1%) and phosphoric acid (5%) in sulphanilamide (1%) in distilled water. […] The concentration of nitrite was determined using a NaNO2 standard curve.
The nitrite production in the supernatant in the culture medium was measured using Greiss reaction.

gastric mucosa [4] = test: ulcerogenic liability; details: for % Incidence of ulcer divided by 10 / Average of ulcer number / Average severity of ulcer / Number of animals with ulcer: three successive days, 10 mg/kg indomethacin mol equivalent; for Number of animals with ulcer: 6 animals
Protocol: as §2

RAW264.7 macrophages = test: cell viability, MTT assay; type: cell-based; details: LPS-stimulated cells treated, FIG. 2B
Protocol: To ensure that the inflammatory response is not due to cell toxicity, cell viability measurements were done using MTT colorimetric assay. On the same cell cultured 96-well plate from the previous experiment, 100 μL of 1 mg/mL MTT solution was added to the adherent RAW264.7 macrophages cells at 37° C. and incubated for 2 h. After that, 100 μL of DMSO was added to the wells to dissolve insoluble formazan crystals. Absorbance was measured spectrophotometrically at 540 nm using a NanoSPECTROstar microplate reader (BMG LABTECH, Germany). Cell viability was then calculated as a percentage of untreated control.
Cytotoxicity of the macrophages was evaluated using MTT assay.

Chain of COX-1 (P05979 whole entry): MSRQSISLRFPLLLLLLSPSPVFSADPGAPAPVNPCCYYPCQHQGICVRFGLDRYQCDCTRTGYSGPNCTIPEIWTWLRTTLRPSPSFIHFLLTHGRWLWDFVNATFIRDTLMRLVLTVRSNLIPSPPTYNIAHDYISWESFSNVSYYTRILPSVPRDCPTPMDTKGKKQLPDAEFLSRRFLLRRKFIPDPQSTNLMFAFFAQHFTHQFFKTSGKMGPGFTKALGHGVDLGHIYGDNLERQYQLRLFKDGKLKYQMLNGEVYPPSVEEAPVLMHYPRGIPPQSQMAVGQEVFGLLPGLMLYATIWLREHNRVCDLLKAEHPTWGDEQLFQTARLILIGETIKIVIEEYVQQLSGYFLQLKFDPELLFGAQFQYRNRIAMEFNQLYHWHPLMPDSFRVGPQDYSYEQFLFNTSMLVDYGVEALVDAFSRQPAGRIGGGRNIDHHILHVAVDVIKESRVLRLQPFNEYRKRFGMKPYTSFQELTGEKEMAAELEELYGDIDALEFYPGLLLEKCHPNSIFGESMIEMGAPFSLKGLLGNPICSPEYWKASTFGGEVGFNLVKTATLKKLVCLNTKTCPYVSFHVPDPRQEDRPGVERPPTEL

Compound | Potency [1] [%] | % Protection (hot plate latency; After 30 min.) | % Protection (hot plate latency; After 60 min.) | % Protection (hot plate latency; After 90 min.) | % Protection (hot plate latency; After 120 min.) | Potency (hot plate latency) [%] | IC50 (COX-1) [µM] | SI (COX-2) | IC50 (COX-2) [µM] | % Incidence of ulcer divided by 10 (gastric mucosa [4]; oral) | Average of ulcer number (gastric mucosa [4]; oral) | Average severity of ulcer (gastric mucosa [4]; oral) | Number of animals with ulcer (gastric mucosa [4]; oral) | also measured
C#CCOC(=O)C(C)c1ccc(CC(C)C)cc1 (stereo not shown) [Compound 3, prop-2-yn-1-yl 2-(4-isobutylphenyl) propanoate] | 100.0 | (55.2) % | 2.1** (48.3) % | (19.2) % | (14.9) % | 26.4 | 19.4 ± 0.55 | 2.262 | 8.6 ± 0.24 |  |  |  |  | Writing reflex ± SE ([1]; number of writhing counted for 30 min, 10 mg/kg indomethacin mol equivalent i.p.): 11.3 ± 0.9; % Inhibition/protection ([1]; vs control, 10 mg/kg indomethacin mol equivalent i.p.): 71.8%; Latency period ± SE (hot plate latency; After 30 min.): 10.37 s; Latency period ± SE (hot plate latency; After 60 min.): 10.78 s; Latency period ± SE (hot plate latency; After 90 min.): 10.62 ± 2.2 s; Latency period ± SE (hot plate latency; After 120 min.): 10.35 ± 1.7 s; toxic symptoms and mortality (toxicological bioassay): No toxic symptoms or mortality; Ulcer index (gastric mucosa [2]): 4.33; % Incidence of ulcer divided by 10 (gastric mucosa [2]; po, 10 mg/kg): 3.33; Average of ulcer number (gastric mucosa [2]; po, 10 mg/kg): 0.33; Average severity of ulcer (gastric mucosa [2]; po, 10 mg/kg): 0.67; Number of animals with ulcer (gastric mucosa [2]; po, 10 mg/kg): 2/6
COc1ccccc1-n1cc(COC(=O)C(C)c2ccc(CC(C)C)cc2)nn1 (stereo not shown) [Compound 5e, (1-(2-Methoxyphenyl)-1H-1,2,3-triazol-4-yl)methyl 2-(4-isobutylphenyl)propanoate] |  |  |  |  |  |  | 5.42 | 0.387 | 14 ± 0.4 | 0 | 0 | 0 | 0 | 1/(observed property) ([1]; 1/(% inhibition) peripheral analgesic): 0.0158; Observed property ([1]; % inhibition/protection peripheral analgesic): 63.3; Observed property (hot plate latency; % Protection central analgesic (120 min)): 28; decrease in NO production in comparison to LPS-stimulated cells (in words) [3]: insignificant decrease; ulcers or erosions to the gastric / ulcerogenic liability (in words) (gastric mucosa [4]; mice, oral): none and No ulcerogenic liability; Ulcer index (gastric mucosa [4]; sum of the three values): 0
COc1ccc2c(c1)c(CC(=O)O)c(C)n2C(=O)c1ccc(Cl)cc1 [Indo, indomethacin, reference compound] | 100.0 | (87.1) % | 1.6** (80.9) % | (57.9) % | (56.5) % | 100 |  |  |  | 10 | 2 | 1.67 | 6/6 | Potency ([1]; listed as indomethacin): 100%; cytotoxicity (MTT) in comparison to control (RAW264.7 macrophages): no significant cytotoxicity
